≈ marks a conversion by molar mass, not a printed value. Where “and” joins values, the source holds several entries; their conditions need not be identical. Identical values can stand only once. Like-named read-outs stand apart in the source and are kept apart here. Blank lines part the entries; values can stand above or below the compound they belong to.
Experiments:
UM-SCC-22A cells = test: MTT cell survival assay and isobologram studies; type: cell-based, human
[1] = mice; cited from earlier work
[2] = tested on: MCF7 breast carcinoma cells; test: Cell proliferation and viability, Trypan blue exclusion assay; type: cell-based; conditions: for IC50: 48 h treatment, read-out: IC50, inhibitory effect on MCF7 cell growth
Procedure: FIGS. 5A-5F show the dose dependent effects of CCPS analogs on survival of MCF7 breast carcinoma cells in comparison to the activity of D-e-C6-ceramide, which is commonly used as a model of ceramide action. Cell proliferation and cell viability were determined by Trypan blue exclusion assay. These assays were performed using duplicate samples in two or three independent experiments.
Cell Proliferation: Cells were seeded into plates at a density of approx. 50% corresponding to 1×10^6 cells, in 10 ml of 10% FCS and after an over night incubation the cells were treated with LCL compounds at concentration 0-20 μM in ethanol (ethanol level was kept below 0.1%) and the changes in cell numbers after 48 h were determined and expressed as a percentage of the untreated controls.
Briefly, media was removed, cells were washed twice with PBS, detached using 1% Trypsin and centrifuged at 800 rpm. Cell pellets were resuspended in PBS and Trypan blue (Sigma Chemicals, St. Louis, Mo., USA) was added (1:1 dilution). Under light microscope, the percentage of unstained and stained cells was assessed.
To examine the anticancer activity of CCPS analogs of the invention, their inhibitory effect on MCF7 breast carcinoma cells were analyzed and compared to the activity of D-e-C6-ceramide, which is commonly used as a model of action for ceramides. Cell proliferation and cell viability were determined by Trypan blue exclusion assay.

[3] = Solubility of ceramides and ceramidoids in water
MCF7 cells = conditions: 5 μM
Procedure: FIGS. 4A-4C show the cellular levels of CCPS analogs. MCF 7 cells were treated with 5 μM concentration of CCPS analogs over the time and cellular level of the nonmetabolized CCPSs was measured by MS methodology as shown under Experimental. Results are expressed as % of concentration applied.
A parallel set of cells was used to determine cell proliferation and to prepare lipid extracts for MS analysis.
Briefly, for the indicated points, media was removed, cells were washed twice with PBS, scraped into cold PBS (2×1.0 ml), transferred to glass vials and centrifuged for 5 min at 800 rpm. Cell pellets corresponding to ˜1×10^6 cells, were fortified with the internal standards IS (C17 base D-erythro-sphingosine: 17Sph, C17 sphingosine-1-phosphate: 17Sph-1P, N-palmitoyl-D-erythro-C13 sphingosine: 13CC16-Cer and N-heptadecanoyl-D-erythro-C17shingosine: 17CC17-Cer) and extracted (2×2 ml) into a one-phase solvent system with ethyl acetate/iso-propanol/water (60/30/10 v/v). One ml of this extract was used for Pi determination after lipid re-extraction by the Bligh and Dyer method. Remaining lipid extract was evaporated, reconstituted in 100 μl of methanol, and samples were injected on the Surveyor/TSQ 7000 LC/MS system and gradient eluted from the BDS Hypersil C8, 150×3.2 mm, 3 μm particle size column, with 1.0 mM methanolic ammonium formate/2 mM aqueous ammonium formate mobile phase system. Peaks corresponding to the target analytes and IS were collected and processed using the Xcalibur software system.
Cellular level of CCPS analogs was established by MS methodology.

[4] = tested on: isolated rat liver mitochondria; test: Accumulation / binding in isolated mitochondria; conditions: at 4 min
Procedure: FIG. 16. […] Bar 2 and 4 (+FCCP), ΔΨ was dissipated by addition of FCCP at 1 μM plus antimycin A at 0.5 μg/mg protein from the beginning of the experiment. Results are expressed as mean+SEM of n=3, *p=0.01 versus control.
FIG. 23. […] Trace 3 was corrected for the absorbance of TMRM.
Preparation of mitochondria from rat liver.
Mitochondrial incubation medium.
Analysis of ceramides by mass spectroscopy (MS).

[5] = tested on: isolated rat liver mitochondria; test: Mitochondrial permeabilization (ΔΨ, large-amplitude swelling); conditions: for mitochondrial large-amplitude swelling (in words): 60 μM
[6] = aqueous conditions at pH 4.5, 7.5 and 8.5 over 48 hrs
[7] = Homo sapiens, read-out: IC50 of chemotherapeutic agents
[8] = UM-SCC-22A, 48 hr, read-out: IC50, cell growth
[9] = UM-SCC-22A, 96 hr, DMEM, read-out: IC50, cell growth
[10] = Homo sapiens, UM-SCC-22A, MTT, read-out: IC50 of chemotherapeutic agents

Compound: O=c1[nH]cc(F)c(=O)[nH]1 [5-FU, 5-fluorouracil, reference compound]
IC50 (UM-SCC-22A cells; [7]): 1 to 100 µM
MTD of reference drugs (known) [1]: 25 mg/kg

Solubility at 37° C. [3]: 0.01 mg/mL (≈ 29.3 µM)
Solubility at 37° C. ([mM]) [3]: (0.029) mM
Compound: CCCCCCCCCCCCC/C=C/[C@@H](O)[C@H](CO)NC(C)=O [C2-Cer, D-erythro-C2-ceramide, reference compound]
inhibitory effect on MCF7 cell growth (in words) ([2]; 48 h): inactive

Solubility at 37° C. [3]: 0.0003 mg/mL (≈ 0.558 µM)
Solubility at 37° C. ([mM]) [3]: (0.0005) mM
Compound: CCCCCCCCCCCCC/C=C/[C@@H](O)[C@H](CO)NC(=O)CCCCCCCCCCCCCCC [C16-Cer, D-erythro-C16-ceramide, reference compound]

Compound: N.N.[Cl][Pt][Cl] [CSP, cisplatinum]
MTD of reference drugs (known) [1]: 9 mg/kg

Compound: COc1cccc2c1C(=O)c1c(O)c3c(c(O)c1C2=O)C[C@@](O)(C(C)=O)C[C@@H]3O[C@H]1C[C@H](N)[C@H](O)[C@H](C)O1 [DNR, daunorubicin, reference compound]
IC50 (UM-SCC-22A cells; [7]): 0.1 to 0.25 µM

Compound: COc1cccc2c1C(=O)c1c(O)c3c(c(O)c1C2=O)C[C@@](O)(C(=O)CO)C[C@@H]3O[C@H]1C[C@H](N)[C@H](O)[C@H](C)O1 [DOX, doxorubicin]
IC50 (UM-SCC-22A cells; [7]): 0.1 to 0.25 µM
MTD of reference drugs (known) [1]: 1 to 2 mg/kg and 2 mg/kg

Compound: CCCCCCCCCCCCC/C=C/[C@H](O)[C@H](CO)NC(=O)CCCCCCCCCCCCCCC[n+]1ccccc1.[Br-] [LCL87, L-threo-2-N-[16′-(1″-Pyridinium)-hexadecanoyl]-sphingosine Bromide]
inhibitory effect on MCF7 cell growth (in words) ([2]; 48 h): similar, concentration dependent (1.0-10.0 μM) inhibitory effect on cell growth
IC50 (UM-SCC-22A cells; [8]): ~1 µM
IC50 (UM-SCC-22A cells; [9]): ~0.3 µM

Compound: CCCCCCCCCCCCCC=CC(O)C(CO)NC(=O)CCCCCCCCCCC[n+]1ccccc1 (stereo not shown) [LCL89]
IC50 (UM-SCC-22A cells; [8]): ~1 µM
IC50 (UM-SCC-22A cells; [9]): ~0.3 µM

Compound: CCCCCCCCCCCCCCC[C@@H](O)[C@H](CO)NC(=O)CCCCC[n+]1ccccc1.[Br-] [LCL143, D-erythro-2-N-[6′-(1″-Pyridinium)-hexanoyl]-4,5-dihydrosphingosine Bromide]
Intracellular level, % of concentration applied (MCF7 cells; 1 h): 15%
Cellular level, % of concentration applied (MCF7 cells; 5 h): 13%
Cellular level, % of concentration applied (MCF7 cells; 24 h): 35%
IC50 [2]: 5 µM and 5.02 µM
binding to mitochondria ([4]; 30 μM): 9.8±0.7 nmol/mg protein
lag period of the induction of mitochondrial swelling versus C6-pyridinium-ceramide ([5]; 30 μM): three fold increase in the lag period

Compound: CCCCCCCCCCCCC/C=C/[C@@H](O)[C@H](CO)NC(=O)C[n+]1ccccc1.[Br-] [LCL150, D-erythro-2-N-[2′-(1″-Pyridinium)-acetyl]-sphingosine Bromide]
Cellular level, % of concentration applied (MCF7 cells; 5 h): ~17%
Cellular level, % of concentration applied (MCF7 cells; 24 h): 50%
IC50 [2]: 8 µM
effect on cell growth (in words) (UM-SCC-22A cells; UM-SCC-22A, 96 hr): did not exert a significant effect on cell growth
binding to mitochondria ([4]; 60 μM): 29.8 nmol/mg protein
Stability (decomposition) by MS [6]: no evidence of their decomposition
effect on ΔΨ and mitochondrial swelling (in words) ([5]; 40 μM): only minor changes in the magnitude of mitochondrial swelling and the value of ΔΨ
mitochondrial large-amplitude swelling (in words) [5]: failed to induce the same degree of swelling

IC50 [2]: ~4 µM
Compound: CCCCCCCCCCCCC/C=C/[C@@H](O)[C@H](CO)NC(=O)CCCCC[n+]1ccc(C=Cc2ccc(N(C)C)cc2)cc1 [LCL186, D-erythro-2-N-[6′-[1″-[4′″-[(4″″-N,N-Dimethylamino)styryl]-pyridinium]-hexanoyl]]-sphingosine Bromide]

IC50 ([2]; listed as LCL-275): 15 µM
IC50 [2]: ~20 µM
Solubility at 22° C. [3]: 62 mg/mL
Solubility at 22° C. ([mM]) [3]: (103) mM
Solubility at 37° C. [3]: 120 mg/mL
Solubility at 37° C. ([mM]) [3]: (200) mM
Compound: CCCCCCCCCCCCC/C=C/[C@@H](O)[C@H](CO)NC(=O)c1ccc[n+](CCCCCCCC)c1.[Br-] [LCL275, D-erythro-2-(1′-Octylnicotinoyl)-sphingosine Bromide]

IC50 ([2]; listed as LCL-277): 13 µM
IC50 [2]: 8.5 µM
Compound: CCCCCCCCCCCCC/C=C/[C@@H](O)[C@H](CO)NC(=O)CCc1ccc[n+](CCCC)c1 [LCL277, D-erythro-2-N-[3′-[3″-(1″-Butyl)-pyridinium]-propionoyl]-sphingosine Bromide]

Compound: CCCCCCCCCCCCCCC[C@@H](O)[C@H](CO)NC(=O)C[n+]1ccccc1.[Br-] [LCL319, D-erythro-2-N-[2′-(1″-Pyridinium)-acetyl]-4,5-dihydrosphingosine Bromide]
Cellular level, % of concentration applied (MCF7 cells; 5 h): 27%
Cellular level, % of concentration applied (MCF7 cells; 24 h): 52%
inhibition of MCF7 cell growth ([2]; 10 μM, 48 h): 15%
IC50 [2]: 12.5 µM
Solubility at 22° C. [3]: 0.9 mg/mL
Solubility at 22° C. ([mM]) [3]: (1.8) mM
Solubility at 37° C. [3]: 45 mg/mL
Solubility at 37° C. ([mM]) [3]: (90) mM

Compound: CN(Cc1cnc2nc(N)nc(N)c2n1)c1ccc(C(=O)N[C@@H](CCC(=O)O)C(=O)O)cc1 [MTX, methotrexate, reference compound]
IC50 (UM-SCC-22A cells; [10]): 0.1 to 0.25 µM

Compound: CC(=O)O[C@H]1C(=O)[C@@]2(C)[C@H]([C@H](OC(=O)c3ccccc3)[C@]3(O)C[C@H](OC(=O)[C@H](O)[C@@H](NC(=O)c4ccccc4)c4ccccc4)C(C)=C1C3(C)C)[C@]1(OC(C)=O)CO[C@@H]1C[C@@H]2O [PAX, paclitaxel, reference compound]
IC50 (UM-SCC-22A cells; [10]): 1 to 100 µM

Compound: COC(=O)c1ccccc1-c1c2ccc(=[N+](C)C)cc-2oc2cc(N(C)C)ccc12 [TMRM, reference compound]
binding to mitochondria ([4]; 60 μM): 50±2.6 nmol/mg protein
mitochondrial large-amplitude swelling (in words) [5]: fail to induce large-amplitude swelling

Compound: c1ccc([P+](c2ccccc2)(c2ccccc2)c2ccccc2)cc1 [TPP^+, reference compound]
mitochondrial large-amplitude swelling (in words) [5]: fail to induce large-amplitude swelling

Compound: CCCCCCCCCCCCCCCC[n+]1ccccc1 [cetylpyridinium bromide, Cetylpyridinium bromide (CPB) monohydrate, reference compound]
mitochondrial large-amplitude swelling (in words) [5]: only moderate mitochondrial swelling

Compound: D-threo-2-N-[6′-(1″-Pyridinium)-hexanoyl]-sphingosine Bromide [LCL272]
inhibitory effect on MCF7 cell growth (in words) ([2]; 48 h): caused inhibitory effect on MCF7 cell growth

Compound: L-erythro-2-N-[6′-(1″-Pyridinium)-hexanoyl]-sphingosine Bromide [LCL187]
inhibitory effect on MCF7 cell growth (in words) ([2]; 48 h): caused inhibitory effect on MCF7 cell growth

From patent US8093393B2, “Cationic ceramides, and analogs thereof, and their use for preventing or treating cancer” (MUSC Foundation for Research Development, priority 2004, dated 2012)
